How the values were obtained:
E. coli [1] = experiment: Rapid AST/MIC by membrane fluorescence staining, SIR from IN Cell confocal imaging; type: cell-based; details: InCell measurement; SIR (610 nm/530 nm) vs antibiotic concentration, step function fit; 2-4 hours antibiotic exposure at 37° C.; Synaptogreen/FM 1-43 dye
Protocol: In general, the method includes blood culture centrifugation, bacterial antimicrobial exposure for 2 to 4 hours, bacteria staining with a single fluorescence dye followed by laser confocal microscopy, and mathematical analysis.
Sample Preparation—Macro Dilution Method • a) Antimicrobial (Gentamicin) stock solutions were prepared according to CLSI recommendations, and were diluted in CAMHB, to a concentration which was 2 fold higher from the highest concentration recommended for each antimicrobial combination (“Class II Special Controls Guidance Document: Antimicrobial Susceptibility Test (AST) Systems”, Aug. […] The images were taken through a green filter (530 nm) and red filter (615 nm) one after the other for each image. • i) images were analyzed using GE In Cell Investigator image analysis software. For each image the following operation were performed; segmentation for identifying the bacteria, for each bacteria the intensity in the green and […] were recorded, and a scatter plot of the bacteria population was plotted (x axis—intensity in the green, y axis—intensity in the red).
To quantify the influence of a certain antimicrobial exposure we define the spectral intensity ratio (SIR) as follows: […]
The MIC is calculated by plotting the spectral intensity ratio (SIR) as a function of the antimicrobial concentration and approximating it to a step function in the form of […]

E. coli [2] = experiment: MIC by SIR from flow cytometer measurement; type: cell-based; details: SIR vs antibiotic concentration
Protocol: The MIC is calculated by plotting the spectral intensity ratio (SIR) as a function of the antimicrobial concentration and approximating it to a step function in the form of
Where a, b, and c are parameters and erf is the error function. The parameters are used to approximate the measured SIR to a step function; a is a scaling parameter, b determines the step slope, and c is the MIC value, or a function of it. The SIR values are used to determine the erf parameters by a best fit approximation.
We measured E. coli exposed to gentamicin at 4 concentration. The MIC was calculated using the spectral intensity ratio (SIR) calculation and step function estimation using MATLAB software.
FIG. 3 provides plots showing the SIR as a function of the antibiotic concentration for the InCell measurement (top) and flow cytometer measurement (bottom). As can been seen from the graphs, their shapes are similar, although the InCell measurement has less data points, and the MIC is 0.5 μg/ml in both cases. Live bacteria population (0 μg/ml) have lower SIR then the dead ones (>0.5 μg/ml). At the MIC (0.5 ug/ml) there is a large increase in the SIR. […] The SIR then decreases at very high (>4 ug/ml) antibiotic concentrations.

gentamicin
MIC (E. coli [1]): 0.5 µg/mL | MIC (E. coli [2]): 0.5 µg/mL

Source: patent US20200393377A1, “Microscopy for Rapid Antibiotic Susceptibility Test Using Membrane Fluorescence Staining and Spectral Intensity Ratio” (POCARED Diagnostics LTD., priority 2019, published 2020)
